EC50 data for ten molecules are collected here from BindingDB's records for doi:10.1021/acs.jmedchem.7b01709 (Kobe Gakuin University, 2018).

The nature of the first experiment: Inhibition of DRV-resistant protease V32I/L33F/I54M/V82I mutant in HIV1 transfected in 293T cells after 48 hrs by lentiviral vector-based luciferase reporter gene assay. (A reporter such as luciferase makes a cellular process visible.)
Turning to `COc1cccc2cc(C(=O)N[C@H](C(=O)N[C@@H](Cc3ccccc3)[C@H](O)C(=O)N3CSC(C)(C)[C@H]3C(=O)NCc3c(C)cccc3C)[C@H]3CCOC3)oc12`, the 50% effective concentration (EC50) (in general, the concentration at which the effect is half-maximal) came to 0.3 nM.

The nature of a further experiment: Inhibition of DRV-resistant protease V32I/L33F/I54M/I84V mutant in HIV1 transfected in 293T cells after 48 hrs by lentiviral vector-based luciferase reporter gene assay.
`COc1cccc2cc(C(=O)N[C@H](C(=O)N[C@@H](Cc3ccccc3)[C@H](O)C(=O)N3CSC(C)(C)[C@H]3C(=O)NCc3c(C)cccc3C)[C@H]3CCOC3)oc12` came in with an EC50 of 1.2 nM.

A further experiment is described as follows: Inhibition of protease L10F/V32I/M46I/I47V/Q58E/I84V mutant in HIV1 A17 infected in human MT4 cells assessed as reduction in virus-induced cytopathic effect after 5 days by MTT assay. Background: Cytopathic effects are the visible damage that an infection or toxin causes in cultured cells.
On to `Cc1cccc(C)c1CNC(=O)[C@H]1N(C(=O)[C@@H](O)[C@H](Cc2ccccc2)NC(=O)[C@@H](NC(=O)c2cc3ccccc3o2)[C@H]2CCOC2)CSC1(C)C`, for which the half-maximal effective concentration (EC50) was 678 nM.

Turning to `Cc1cccc(C)c1CNC(=O)[C@H]1N(C(=O)[C@@H](O)[C@H](Cc2ccccc2)NC(=O)[C@@H](NC(=O)c2cc3ccccc3o2)C(C)C)CSC1(C)C`, the EC50 came out at 1100 nM.

In the case of `Cc1cccc(C)c1CNC(=O)[C@H]1N(C(=O)[C@@H](O)[C@H](Cc2ccccc2)NC(=O)[C@@H](NC(=O)COc2cccc(N(C)C)c2)[C@H]2CCOC2)CSC1(C)C`, the 50% effective concentration (EC50) is 165 nM.

Turning to `Cc1cccc(C)c1CNC(=O)[C@H]1N(C(=O)[C@@H](O)[C@H](Cc2ccccc2)NC(=O)[C@H](CC(N)=O)NC(=O)c2cc3ccccc3o2)CSC1(C)C`, the EC50 worked out at 61 nM.

Take `Cc1ccccc1CNC(=O)[C@H]1N(C(=O)[C@@H](O)[C@H](Cc2ccccc2)NC(=O)[C@@H](NC(=O)c2cnc3ccccc3n2)[C@H]2CCOC2)CSC1(C)C`: the 50% effective concentration (EC50) was 95 nM.

With `Cc1cccc(C)c1CNC(=O)[C@H]1N(C(=O)[C@@H](O)[C@H](Cc2ccccc2)NC(=O)[C@@H](NC(=O)COc2cccc(Nc3ccccc3)c2)[C@H]2CCOC2)CSC1(C)C`, the EC50 was found to be 226 nM.

With `COc1cccc2cc(C(=O)N[C@H](C(=O)N[C@@H](Cc3ccccc3)[C@H](O)C(=O)N3CSC(C)(C)[C@H]3C(=O)NCc3c(C)cccc3C)[C@H]3CCOC3)oc12`, the concentration for a half-maximal effect (EC50) turned out to be 25 nM.

On to `COc1cccc2cc(C(=O)N[C@@H](CC(N)=O)C(=O)N[C@@H](Cc3ccccc3)[C@H](O)C(=O)N3CSC(C)(C)[C@H]3C(=O)NCc3c(C)cccc3C)oc12`, for which the EC50 was 84 nM.

For the molecule `COc1cccc2cc(C(=O)N[C@H](C(=O)N[C@@H](Cc3ccccc3)[C@H](O)C(=O)N3CSC(C)(C)[C@H]3C(=O)NCc3c(C)cccc3C)C(C)C)oc12`, the EC50 amounted to 309 nM.

For `Cc1ccccc1CNC(=O)[C@H]1N(C(=O)[C@@H](O)[C@H](Cc2ccccc2)NC(=O)c2cccc(O)c2C)CSC1(C)C` [AG1776], the EC50 was found to be 2730 nM.
